# Legend:
# [1] = target: T1, A3 adenosine receptor (Homo sapiens, UniProt P0DMS8); assay: Radioligand binding competition, A3 AdoR (125I-AB-MECA), membranes of HEK-A3 or CHO-A3 cells
# T1 construct: expressed in transfected cells; host or cells: HEK-293 or CHO cells (HEK-A3 or CHO-A3), membranes
# T1 sequence (P0DMS8 1-318): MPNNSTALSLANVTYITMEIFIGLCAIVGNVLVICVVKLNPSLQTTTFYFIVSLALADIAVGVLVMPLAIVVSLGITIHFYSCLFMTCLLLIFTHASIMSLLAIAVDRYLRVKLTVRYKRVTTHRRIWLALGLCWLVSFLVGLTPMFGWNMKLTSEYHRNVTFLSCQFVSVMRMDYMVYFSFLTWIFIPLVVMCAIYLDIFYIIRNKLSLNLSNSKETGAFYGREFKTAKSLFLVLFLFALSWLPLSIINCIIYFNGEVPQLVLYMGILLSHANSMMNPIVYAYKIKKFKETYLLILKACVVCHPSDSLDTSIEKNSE
# Description: The cDNAs for human A1, A2A, A2B or A3 AdoRs were prepared by RT-PCR from total RNA of human cells or tissues and sequenced on both strands. The expression vector containing each of these cDNAs and a second vector containing a neomycin or puromycin-resistance gene were introduced to HEK-293 or CHO cells by Lipofectin-Plus (Life Technology). Colonies were selected by growing transfected cells in the presence of neomycin or puromycin. Stably transfected cells were maintained in Dulbecco's modified Eagle's medium (DMEM) or F-12 medium with 10% fetal bovine serum, 100 μg/ml penicillin, 100 μg/ml streptomycin and appropriate concentrations of neomycin or puromycin. These stably transfected cells were referred to as HEK-“AdoR” or CHO-“AdoR” depending on the receptors that they express. For example, cells that were transfected with A3 AdoRs were referred to as HEK-A3 or CHO-A3.
# Monolayers of transfected cells were washed with phosphate buffered saline (PBS) and harvested in a buffer containing 10 mM HEPES (pH 7.4), 10 mM EDTA and protease inhibitors. The cells were homogenized in polytron for 1 minute at setting 4 and centrifuged at 29000 g for 15 minutes at 4° C. The cell pellets were washed with a buffer containing 10 mM HEPES (pH7.4), 1 mM EDTA and protease inhibitors, and were resuspended in the same buffer supplemented with 10% sucrose. Frozen aliquots were kept at −80° C.
# The affinities of compounds for A1, A2A, A2B or A3 AdoRs were determined in competition studies using radioligands such as ^3H-CPX (A1 antagonist), or ^3H-CCPA (A1 agonist), ^3H-ZM241385 (A2A antagonist) or ^3H-CGS21680 (A2A agonist), ^3H-ZM241385 (A2B antagonist) or ^125I-AB-MECA (A3 agonist) and membranes of corresponding transfected cells. For example, to determine the affinity for A3 AdoRs, the competition assays were started by mixing 0.2 nM ^125I-AB-MECA with various concentrations of test compounds and 25 ug membrane proteins of HEK-A3 or CHO-A3 in TEM buffer (50 mM Tris, 1 mM EDTA and 10 mM MgCl2) supplemented with 1 U/ml adenosine deaminase. The assays were incubated for 90 minutes, stopped by filtration onto GF/B filter plates using Packard Harvester and washed four times with ice-cold TM buffer (10 mM Tris, 1 mM MgCl2, pH 7.4). The amounts of radioligands that bound to the GF/B filter plates were determined by scintillation counting. Nonspecific binding was determined in the presence of 10 μM R-PIA (phenylisopropyladenosine) or 1 μM IB-MECA. Bmax and KD values were calculated using GraphPad software.
# [2] = target: T2, A1 adenosine receptor (Homo sapiens, UniProt P30542); assay: Radioligand binding competition, A1 AdoR (3H-CPX or 3H-CCPA), membranes of transfected cells; conditions: Table 2
# T2 construct: expressed in transfected cells; host or cells: HEK-293 or CHO cells, membranes
# T2 sequence (P30542 1-326): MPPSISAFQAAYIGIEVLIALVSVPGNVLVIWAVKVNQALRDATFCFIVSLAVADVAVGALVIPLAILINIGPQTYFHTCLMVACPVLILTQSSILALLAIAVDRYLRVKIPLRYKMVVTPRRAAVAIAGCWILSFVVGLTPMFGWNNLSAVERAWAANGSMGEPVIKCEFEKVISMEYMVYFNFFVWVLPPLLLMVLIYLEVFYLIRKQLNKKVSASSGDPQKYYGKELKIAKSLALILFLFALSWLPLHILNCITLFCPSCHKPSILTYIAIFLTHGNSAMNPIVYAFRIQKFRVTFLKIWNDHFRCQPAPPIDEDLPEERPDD
# Description: (§1) The cDNAs for human A1, A2A, A2B or A3 AdoRs were prepared by RT-PCR from total RNA of human cells or tissues and sequenced on both strands. The expression vector containing each of these cDNAs and a second vector containing a neomycin or puromycin-resistance gene were introduced to HEK-293 or CHO cells by Lipofectin-Plus (Life Technology). Colonies were selected by growing transfected cells in the presence of neomycin or puromycin. Stably transfected cells were maintained in Dulbecco's modified Eagle's medium (DMEM) or F-12 medium with 10% fetal bovine serum, 100 μg/ml penicillin, 100 μg/ml streptomycin and appropriate concentrations of neomycin or puromycin. […]
# (§2) The affinities of compounds for A1, A2A, A2B or A3 AdoRs were determined in competition studies using radioligands such as ^3H-CPX (A1 antagonist), or ^3H-CCPA (A1 agonist), ^3H-ZM241385 (A2A antagonist) or ^3H-CGS21680 (A2A agonist), ^3H-ZM241385 (A2B antagonist) or ^125I-AB-MECA (A3 agonist) and membranes of corresponding transfected cells. […] The amounts of radioligands that bound to the GF/B filter plates were determined by scintillation counting. Nonspecific binding was determined in the presence of 10 μM R-PIA (phenylisopropyladenosine) or 1 μM IB-MECA. Bmax and KD values were calculated using GraphPad software.
# [3] = target: T3, A2A adenosine receptor (Homo sapiens, UniProt P29274); assay: Radioligand binding competition, A2A AdoR (3H-ZM241385 or 3H-CGS21680), membranes of transfected cells; conditions: Table 2
# T3 construct: expressed in transfected cells; host or cells: HEK-293 or CHO cells, membranes
# Description: as §1, §2
# [4] = Table 1, 0.2 nM 125I-AB-MECA, HEK-A3 or CHO-A3 membranes
# [5] = Table 2, 125I-AB-MECA competition
# T3 sequence (P29274 whole entry): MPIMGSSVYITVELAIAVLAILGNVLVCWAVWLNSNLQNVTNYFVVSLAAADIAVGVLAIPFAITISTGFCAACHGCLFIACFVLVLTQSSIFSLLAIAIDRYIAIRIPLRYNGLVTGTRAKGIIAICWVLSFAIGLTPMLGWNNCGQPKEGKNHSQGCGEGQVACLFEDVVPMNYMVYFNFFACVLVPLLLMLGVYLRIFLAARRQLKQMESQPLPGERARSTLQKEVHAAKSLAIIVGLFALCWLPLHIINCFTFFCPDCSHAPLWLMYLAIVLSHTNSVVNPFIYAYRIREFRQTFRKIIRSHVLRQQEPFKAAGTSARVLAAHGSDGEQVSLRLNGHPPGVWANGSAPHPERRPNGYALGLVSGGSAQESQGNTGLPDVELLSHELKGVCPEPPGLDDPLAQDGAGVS
Molecule,"Ki [1, 4] [nM]",other results
CCn1c(-n2cccn2)nc2c(N)nc(NCc3ccccc3)nc21 [(6-amino-9-ethyl-8-pyrazolylpurin-2-yl)benzylamine],7,–
CCn1c(-n2cc(-c3cccc(C(F)(F)F)c3)cn2)nc2c(N)nc(NCc3ccccc3)nc21 [(6-amino-9-ethyl-8-{4-[3-(trifluoromethyl)phenyl]pyrazolyl}purin-2-yl)benzylamine],1480,–
"CCn1c(-n2cc(C)cn2)nc2c(NC(=O)C(C)(C)C)nc(NCc3ccccc3)nc21 [N-{9-ethyl-8-(4-methylpyrazolyl)-2-[benzylamino]purin-6-yl}-2,2-dimethylpropanamide]",18.6,–
CCn1c(-n2cc(C)cn2)nc2c(N)nc(NCc3ccccc3)nc21 [[6-amino-9-ethyl-8-(4-methylpyrazolyl)purin-2-yl]benzylamine],2,Ki [2]: 225 nM; Ki [3]: 2040 nM
(6-amino-9-propyl-8-pyrazolylpurin-2-yl)(2-phenylethyl)amine,52,–
"(6-amino-9-propyl-8-pyrazolylpurin-2-yl)[2-(2,5-dimethoxyphenyl)ethyl]amine",112,–
(6-amino-9-propyl-8-pyrazolylpurin-2-yl)[2-(3-fluorophenyl)ethyl]amine,82,–
(6-amino-9-propyl-8-pyrazolylpurin-2-yl)[2-(4-fluorophenyl)ethyl]amine,210,–
((1S)-1-phenylethyl)[6-amino-8-(4-methylpyrazolyl)-9-propylpurin-2-yl]amine,–,"Ki [1, 5]: 0.9 nM"
N-{2-[(2-phenylethyl)amino]-9-propyl-8-pyrazolylpurin-6-yl}[3-(trifluoromethyl)phenyl]carboxamide,910,–
N-{2-[(2-phenylethyl)amino]-9-propyl-8-pyrazolylpurin-6-yl}[4-(trifluoromethyl)phenyl]carboxamide,3120,–
N-{9-ethyl-2-[benzylamino]-8-pyrazolylpurin-6-yl}-2-methoxyacetamide,3,"Ki [1, 5]: 3 nM; Ki [2]: 3950 nM"
